Data from article PMC9486168, “Protein-protein interaction-based high throughput screening for adenylyl cyclase 1 inhibitors: Design, implementation, and discovery of a novel chemotype” (Frontiers in Pharmacology, 2022).
Where a name gives a salt, the structure may show the parent alone.

Tests used:
[1] = target: T1, AC1-C1b/CaM (Homo sapiens, UniProt P0DP23); test: AC1-C1b/CaM fluorescence polarization (FP) assay; format: binding; conditions: for IC50: 100 nM AC1-C1b, 100 nM GST-CaM, 95% CI in brackets; for Ki: Cheng-Prusoff from FP IC50 and Kd; for AC1-CaM FP % inhib: relative to 100 μM CDZ (100% inhibition), highest concentration tested
T1 construct: made in house; host or cells: E. coli BL21-CodonPlus (DE3)-RIPL

[2] = target: T2, AC8-Nt/CaM (Homo sapiens, UniProt P0DP23); test: AC8-Nt/CaM FP counterscreen assay; format: binding; conditions: for Ki: Cheng-Prusoff from FP IC50 and Kd, n/i given where none; for Ki ratio (AC8 NT/AC1): ratio >1: more potent in AC1/CaM FP;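 as to all read-outs here: fluorescence polarization of AC peptide binding GST-CaM in HEPES buffer with CaCl2, compound preincubated with CaM 30 min, peptide read after 2 h at room temperature in dark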
T2 construct: made in house; host or cells: E. coli BL21-CodonPlus (DE3)-RIPL

[3] = target: T3, AC8-C2b/CaM (Homo sapiens, UniProt P0DP23); test: AC8-C2b/CaM FP counterscreen assay; format: binding; conditions: for Ki: Cheng-Prusoff from FP IC50 and Kd, n/i given where none; for Ki ratio (AC8-C2b/AC1): ratio >1: more potent in AC1/CaM FP;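 as to all read-outs here: fluorescence polarization of AC peptide binding to GST-CaM in HEPES buffer with KCl and 50 µM CaCl2, compound preincubated 30 min with GST-CaM, DMSO and calmidazolium as controls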
T3 construct: made in house; host or cells: E. coli BL21-CodonPlus (DE3)-RIPL

[4] = target: T4, AC1/CaM PPI (Homo sapiens, UniProt P0DP23); test: AC1/CaM NanoBiT assay in HEK293T cells; format: cell-based; conditions: HEK293T, thapsigargin-stimulated, AUC; read-out: Nanobit: AC1-CaM IC50 (μM ± SEM)
T4 construct: human AC1 (hAC1) residues 1–1,118 were cloned; The hCaM residues 1–149, residues 1–1,248 of rat AC8 (rAC8); expressed in transfected cells; host or cells: HEK293T, transient transfection

[5] = target: T5, AC8/CaM PPI (Homo sapiens, UniProt P0DP23); test: AC8/CaM NanoBiT assay in HEK293T cells; format: cell-based, rat; conditions: HEK293T, thapsigargin-stimulated, AUC; read-out: Nanobit: AC8-CaM IC50 (μM ± SEM)
T5 construct: confirmed as an AC1/AC8 non-selective hit against full-length AC1- and AC8-CaM in the NanoBiT assay; The hCaM residues 1–149, residues 1–1,248 of rat AC8 (rAC8); expressed in transfected cells; host or cells: HEK293T, transient transfection

[6] = CellTiter-Glo 2.0 cell viability assay; format: cell-based; conditions: human, HEK293T cells, pH 7.4; at the compound's AC1/CaM NanoBiT IC50 concentration; read-out: % Viable Cells at AC1 IC50;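 also: luminescence read-out after 30 min compound exposure at 37 °C in HEPES-buffered HBSS, scaled to vehicle-treated cells as 100% and cell-free buffer wells as 0%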
[7] = system: HEK293T cells; test: CellTiter-Glo 2.0 cell viability assay; format: cell-based; conditions: for decrease in cell viability at AC1/CaM IC50: at AC1/CaM NanoBiT IC50;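 as to all read-outs here: luminescence read-out after 30 min compound exposure at 37 °C in HEPES-buffered HBSS, scaled to vehicle-treated cells as 100% and cell-free buffer wells as 0%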

Row | SMILES | IC50 [1] [µM] | Ki [1] [µM] | Ki [2] [µM] | Ki ratio (AC8 NT/AC1) [2] | Ki [3] [µM] | Ki ratio (AC8-C2b/AC1) [3] | IC50 [4] [µM] | IC50 [5] [µM] | AC1-CaM FP % inhib [1] [%] | viability at 30 min [6] [%] | decrease in cell viability at AC1/CaM IC50 [7] | decrease in cell viability at 100 μM ([7]; 100 μM) [%] | cell viability reduced at highest concentration tested ([7]; 316 μM) [%]
1 | Cc1cc2nc3ccc(N(C)C)cc3[s+]c2cc1N [Compound 1, Tolonium Chloride] | 1.24 | 0.29 | 2.3 | 7.9 | 0.44 | 1.5 | 32.9 ± 1.01 | 8.4 ± 1.19 | – | 80 | greater than 10% | – | –
2 | CCCCC(CC)CNC(=N)NC(=N)NCCCCCCNC(=N)NC(=N)NCC(CC)CCCC (stereo not shown) [Compound 3, Alexidine] | 2.8 | 0.67 | 1.1 | 1.6 | 2.6 | 3.9 | 17.9 ± 1.15 | 16.5 ± 1.15 | 103 | 75 | 25% | 70 | –
3 | O=C1c2c(O)ccc(O)c2C(=O)c2c(NCCNCCO)ccc(NCCNCCO)c21 [Compound 11, Mitoxantrone HCl] | 27.5 | 6.5 | 41.1 | 6.3 | 8.2 | 1.3 | 44 ± 1.15 | 29.8 ± 1.18 | 40 | 87 | greater than 10% | – | –

The next lines start with results.

Row | IC50 [1] [µM] | Ki [1] [µM] | Ki [2] [µM] | Ki ratio (AC8 NT/AC1) [2] | Ki [3] [µM] | Ki ratio (AC8-C2b/AC1) [3] | IC50 [4] [µM] | IC50 [5] [µM] | AC1-CaM FP % inhib [1] [%] | SMILES | viability at 30 min [6] [%] | decrease in cell viability at AC1/CaM IC50 [7] | decrease in cell viability at 100 μM ([7]; 100 μM) [%] | cell viability reduced at highest concentration tested ([7]; 316 μM) [%]
4 | 17.1 | 4.1 | 6.3 | 1.6 | 10.3 | 2.5 | 18.8 ± 1.16 | 12.8 ± 1.22 | 92 | CCCCCCCCOc1ccccc1C(=O)Nc1ccc(C(=O)OCC[N+](C)(CC)CC)cc1 [Compound 7, Otilonium] | 96 | – | – | ~50
5 | 22 | 5.2 | 13.8 | 2.7 | 20.8 | 4.0 | 111 ± 1.23 | 47.1 ± 1.35 | 15 | [H]/N=C(\N/C(=N/[H])NCCCCCCNC(=N)NC(=N)Nc1ccc(Cl)cc1)Nc1ccc(Cl)cc1 [Compound 9, Chlorhexidine HCl] | 80 | greater than 10% | – | –
